Measured values reported in ChEMBL document CHEMBL1153898, “Indolyl-pyrrolone as a new scaffold for Pim1 inhibitors” (Bioorg Med Chem Lett, 2009).
Activity calls are given as the source filed them. No cut-off for these calls is given here.

Assays:
[1] = molecular target: T1, Serine/threonine-protein kinase pim-1 (Homo sapiens, UniProt P11309); test: Inhibition of recombinant Pim1 with increasing concentration of ATP
Target sequence in this assay (P11309 whole entry, looked up): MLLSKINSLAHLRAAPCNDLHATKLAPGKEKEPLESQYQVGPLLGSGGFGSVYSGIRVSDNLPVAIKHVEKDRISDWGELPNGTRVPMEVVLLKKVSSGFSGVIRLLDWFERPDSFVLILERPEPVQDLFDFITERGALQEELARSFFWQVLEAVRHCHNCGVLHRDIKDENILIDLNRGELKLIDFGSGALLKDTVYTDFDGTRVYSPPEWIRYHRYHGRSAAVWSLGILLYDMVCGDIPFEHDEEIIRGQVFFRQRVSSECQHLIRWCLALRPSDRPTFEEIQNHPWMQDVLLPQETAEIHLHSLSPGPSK

[2] = molecular target: T1, Serine/threonine-protein kinase pim-1; test: Inhibition of human recombinant Pim1 expressed in insect cells at 100 uM
Target sequence in this assay (P11309 whole entry, looked up): as above

[3] = molecular target: T1, Serine/threonine-protein kinase pim-1; test: Inhibition of recombinant Pim1 by scintillation counter
Target sequence in this assay (P11309 whole entry, looked up): as above

[4] = molecular target: T1, Serine/threonine-protein kinase pim-1; test: Inhibition of human recombinant Pim1 expressed in insect cells by HTRF
Target sequence in this assay (P11309 whole entry): as the sequence (P11309 whole entry, looked up) above

[5] = test system: PC-3; test: Cell cycle arrest in human PC3 cells assessed as accumulation at G1 phase at 10 uM after 72 hrs by cytofluorimetric assay; assay type: functional
[6] = test system: LNCaP; test: Cell cycle arrest in human LNCAP cells assessed as accumulation at G2 phase at 10 uM after 72 hrs by cytofluorimetric assay; assay type: functional
[7] = test system: LNCaP; test: Cell cycle arrest in human LNCAP cells assessed as accumulation at G1 phase at 10 uM after 72 hrs by cytofluorimetric assay; assay type: functional
[8] = test system: LNCaP; test: Cell cycle arrest in human LNCAP cells assessed as accumulation at S phase at 10 uM after 72 hrs by cytofluorimetric assay; assay type: functional
[9] = test system: PC-3; test: Cell cycle arrest in human PC3 cells assessed as accumulation at G2 phase at 10 uM after 72 hrs by cytofluorimetric assay; assay type: functional
[10] = test system: PC-3; test: Antiproliferative activity against human PC3 cells assessed as reduction in cell number after 72 hrs; assay type: functional, cell-based; settings: PC-3, 72 h
[11] = test system: PC-3; test: Cell cycle arrest in human PC3 cells assessed as accumulation at S phase at 10 uM after 72 hrs by cytofluorimetric assay; assay type: functional
[12] = test system: LNCaP; test: Antiproliferative activity against human LNCAP cells assessed as reduction in cell number after 72 hrs; assay type: functional, cell-based

| Structure (SMILES) | Activity [1] | inhibition [2] | ID50 [3] | Ki [4] | other results |
| --- | --- | --- | --- | --- | --- |
| O/N=C/c1ccccc1OCC(O)Cn1c2ccccc2c2ccccc21 (stereo unspecified) |  | 75% |  |  | IC50 [4]: 16 µM |
| C/C(=C/c1sc2ccccc2[n+]1CCO)C/C=C1/Sc2ccccc2N1CCO |  | -4% |  |  |  |
| CC(Cc1ccccc1)NC(=O)C(c1ccc(N)cc1)c1ccc(N)cc1 (stereo unspecified) |  | -7% |  |  |  |
| CN(C)CCCn1cc(C2=C(c3cn(C)c4ccccc34)C(=O)NC2=O)c2ccccc21 |  |  |  |  | IC50 [4]: 0.15 µM |
| CN1C2C=C(N(CCc3c[nH]c4ccccc34)C(=O)c3ccc(Cl)cc3)CCC1CC2 (stereo unspecified) |  | 30% |  |  | IC50 [4]: 2.1 µM |
| CCOc1ccc(C2C(C(C)=O)=C(O)C(=O)N2CCc2c[nH]c3ccccc23)cc1 (stereo unspecified) | Active | 71% | 12 µM | 4.2 µM |  |
| CC(=O)Nc1ccc(-c2csc(-c3c[nH]c4ccccc34)n2)cc1 |  | 1% |  |  |  |

Further lines, with some results ahead:

| Activity [1] | inhibition [2] | ID50 [3] | Ki [4] | Structure (SMILES) | other results |
| --- | --- | --- | --- | --- | --- |
| Active | 54% | 10 µM |  | CC(=O)C1=C(O)C(=O)N(CCc2c[nH]c3ccccc23)C1c1ccc(C)cc1 (stereo unspecified) |  |
| Active | 90% | 9.5 µM | 4.5 µM | COc1cc(C2C(C(C)=O)=C(O)C(=O)N2CCc2c[nH]c3ccccc23)ccc1O (stereo unspecified) |  |
| Active | 79% | 4.5 µM | 2.1 µM | CCc1ccc(C2C(C(C)=O)=C(O)C(=O)N2CCc2c[nH]c3ccccc23)cc1 (stereo unspecified) | Activity [5]: 64.24%; Activity [6]: 25.61%; Activity [7]: 39.47%; Activity [8]: 34.92%; Activity [9]: 14.94%; IC50 [10]: 10.1 µM; Activity [11]: 20.81%; IC50 [12]: 10.6 µM |
| Active | 92% | 5.2 µM | 2.2 µM | CC(=O)C1=C(O)C(=O)N(CCc2c[nH]c3ccccc23)C1c1ccc(O)cc1 (stereo unspecified) |  |
| Active | 57% | 13 µM |  | COC(=O)c1ccc(C2C(C(C)=O)=C(O)C(=O)N2CCc2c[nH]c3ccccc23)cc1 (stereo unspecified) |  |
| Active | 84% | 19 µM |  | CC(=O)C1=C(O)C(=O)N(CCc2c[nH]c3ccccc23)C1c1cccc(O)c1 (stereo unspecified) |  |
